Reference: PubChem BioAssay AID330 (DTP/NCI, 2004)
Several values for one entry are separate records, joined by “and”; a condition that tells them apart may be missing. Equal values may be shown once. Inconclusive results and toxic doses are left out. Square brackets hold non-standard residues; d marks the D form. Peptide text beside a SMILES is read from it. ξ: configuration not given here. ξPhe(4-N(CH2CH2Cl)2) = NC(Cc1ccc(N(CCCl)CCCl)cc1)C(=O)O

Test system: P388 leukemia ip, CD2F1 mice, survival T/C
Assay: NCI In Vivo Anticancer Drug Screen. Data for tumor model P388 Leukemia (intraperitoneal) in CD2F1 (CDF1) mice
Conditions: endpoint: median survival time, higher = longer survival
Outline: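 Mice carrying the transplanted tumor received test compound or vehicle. Survival was recorded in each group, and the value is the treated-group measurement divided by that of the vehicle-treated control group.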

[1] = dose: 25.0 mg/kg/injection, schedule: Q01DX005 (ip), vehicle: Klucel (hydroxypropylcellulose) (HPC)
[2] = dose: 50.0 mg/kg/injection, schedule: Q01DX005 (ip), vehicle: Klucel (hydroxypropylcellulose) (HPC)

For `CCc1nc(N)nc(N)c1-c1ccc(N(C)C)cc1`, the T/C (dose: 6.25 mg/kg/injection, schedule: Q01DX005 (ip), vehicle: Klucel (hydroxypropylcellulose) (HPC)) was 97 % of control, the T/C (dose: 12.5 mg/kg/injection, schedule: Q01DX005 (ip), vehicle: Klucel (hydroxypropylcellulose) (HPC)) was 98 % of control and the T/C [1] was 96 % of control. The T/C [2] was 95 % of control.
In the case of `NC(CO)C(=O)NC(CCC(=O)O)C(=O)NC(CO)C(=O)NC(CCC(=O)O)C(=O)NC(Cc1ccc(N(CCCl)CCCl)cc1)C(=O)O` (stereo not drawn) (H-SESE[ξPhe(4-N(CH2CH2Cl)2)]-OH; configuration not given here), the T/C (dose: 5.0 mg/kg/injection, schedule: Q04DX003 (ip), vehicle: water) is reported as 96 % of control, the T/C (dose: 10.0 mg/kg/injection, schedule: Q04DX003 (ip), vehicle: water) is reported as 98 % of control and the T/C (dose: 20.0 mg/kg/injection, schedule: Q04DX003 (ip), vehicle: water) is reported as 101 % of control. The T/C (dose: 40.0 mg/kg/injection, schedule: Q04DX003 (ip), vehicle: water) was 102 % of control and 111 % of control and the T/C (dose: 80.0 mg/kg/injection, schedule: Q04DX003 (ip), vehicle: water) was 117 % of control.
With `CC(C)CC(=O)C(c1ccccc1)C(CC(C)C)C(=O)C1C(c2ccccc2)CC(=O)C(C(C)C)C1c1ccccc1` (stereo not drawn) the T/C (dose: 50.0 mg/kg/injection, schedule: Q01DX005 (ip), vehicle: saline with Tween-80) was 101 % of control, the T/C (dose: 100.0 mg/kg/injection, schedule: Q01DX005 (ip), vehicle: saline with Tween-80) was 92 % of control and the T/C (dose: 200.0 mg/kg/injection, schedule: Q01DX005 (ip), vehicle: saline with Tween-80) was 87 % of control.
For `COC(=O)C1(F)C(=O)NC(=O)NC1OC` (stereo not drawn), the T/C (dose: 30.0 mg/kg/injection, schedule: Q04DX002 (ip), vehicle: Klucel (hydroxypropylcellulose) (HPC)) was 117 % of control, the T/C (dose: 60.0 mg/kg/injection, schedule: Q04DX002 (ip), vehicle: Klucel (hydroxypropylcellulose) (HPC)) was 118 % of control and 123 % of control and the T/C (dose: 240.0 mg/kg/injection, schedule: Q04DX002 (ip), vehicle: Klucel (hydroxypropylcellulose) (HPC)) was 157 % of control. For the same compound, the T/C (dose: 480.0 mg/kg/injection, schedule: Q04DX002 (ip), vehicle: Klucel (hydroxypropylcellulose) (HPC)) was 164 % of control.
In the case of `O=C1OC(=O)C(c2ccccc2)(c2ccccc2)C1c1ccccc1` (stereo not drawn), the T/C (dose: 100.0 mg/kg/injection, schedule: Q04DX003 (ip), vehicle: saline with Tween-80) is reported as 112 % of control, the T/C (dose: 200.0 mg/kg/injection, schedule: Q04DX003 (ip), vehicle: saline with Tween-80) is reported as 119 % of control and the T/C (dose: 400.0 mg/kg/injection, schedule: Q04DX003 (ip), vehicle: saline with Tween-80) is reported as 112 % of control.
In the case of `O=C(Nc1ccc(NC(=O)Nc2ccc(C3=NCCN3)cc2)cc1)Nc1ccc(C2=NCCN2)cc1`, the T/C (dose: 110.0 mg/kg/injection, schedule: Q01DX010 (ip), vehicle: saline) is reported as 118 % of control and the T/C (dose: 165.0 mg/kg/injection, schedule: Q01DX010 (ip), vehicle: saline) is reported as 118 % of control.
In the case of `Fc1ccc(N2C(Cl)(Cl)C23c2ccccc2-c2ccccc23)cc1`, the T/C (dose: 12.5 mg/kg/injection, schedule: Q01DX009 (ip), vehicle: saline with Tween-80) is reported as 104 % of control, the T/C (dose: 25.0 mg/kg/injection, schedule: Q01DX009 (ip), vehicle: saline with Tween-80) is reported as 103 % of control and the T/C (dose: 50.0 mg/kg/injection, schedule: Q01DX009 (ip), vehicle: saline with Tween-80) is reported as 94 % of control. For the same compound, the T/C (dose: 100.0 mg/kg/injection, schedule: Q01DX009 (ip), vehicle: saline with Tween-80) was 103 % of control and the T/C (dose: 200.0 mg/kg/injection, schedule: Q01DX009 (ip), vehicle: saline with Tween-80) was 112 % of control.
`CC[P+](c1ccccc1)(c1ccccc1)c1ccccc1` was tested, and the T/C (dose: 0.62 mg/kg/injection, schedule: Q01DX009 (ip), vehicle: saline with Tween-80) was 111 % of control, the T/C (dose: 1.25 mg/kg/injection, schedule: Q01DX009 (ip), vehicle: saline with Tween-80) was 104 % of control and the T/C (dose: 2.5 mg/kg/injection, schedule: Q01DX009 (ip), vehicle: saline with Tween-80) was 112 % of control. For the same compound, the T/C (dose: 5.0 mg/kg/injection, schedule: Q01DX009 (ip), vehicle: saline with Tween-80) was 119 % of control.
With `O=C(/C(O)=C(\O)C(=O)N(C1CCCCC1)C1CCCCC1)N(C1CCCCC1)C1CCCCC1` the T/C [1] was 100 % of control, the T/C [2] was 96 % of control and the T/C (dose: 100.0 mg/kg/injection, schedule: Q01DX005 (ip), vehicle: Klucel (hydroxypropylcellulose) (HPC)) was 100 % of control. For the same compound, the T/C (dose: 200.0 mg/kg/injection, schedule: Q01DX005 (ip), vehicle: Klucel (hydroxypropylcellulose) (HPC)) was 92 % of control.
For `c1ccc2c(c1)CCc1cc(CN3CCOCC3)ccc1N2`, the T/C (dose: 60.0 mg/kg/injection, schedule: Q01DX005 (ip), vehicle: Klucel (hydroxypropylcellulose) (HPC)) was 111 % of control, the T/C (dose: 120.0 mg/kg/injection, schedule: Q01DX005 (ip), vehicle: Klucel (hydroxypropylcellulose) (HPC)) was 108 % of control and the T/C (dose: 240.0 mg/kg/injection, schedule: Q01DX005 (ip), vehicle: Klucel (hydroxypropylcellulose) (HPC)) was 105 % of control.
In the case of `c1nnc(NC(Nc2nncs2)C2CCCCC2)s1`, the T/C (dose: 30.0 mg/kg/injection, schedule: Q01DX005 (ip), vehicle: saline with Tween-80) is reported as 98 % of control, the T/C (dose: 60.0 mg/kg/injection, schedule: Q01DX005 (ip), vehicle: saline with Tween-80) is reported as 95 % of control and the T/C (dose: 120.0 mg/kg/injection, schedule: Q01DX005 (ip), vehicle: saline with Tween-80) is reported as 90 % of control and 92 % of control. The T/C (dose: 240.0 mg/kg/injection, schedule: Q01DX005 (ip), vehicle: saline with Tween-80) was 121 % of control.
For `CC[N+](C)(CC)c1ccccc1`, the T/C (dose: 25.0 mg/kg/injection, schedule: Q04DX002 (ip), vehicle: saline) was 103 % of control and the T/C (dose: 50.0 mg/kg/injection, schedule: Q04DX002 (ip), vehicle: saline) was 104 % of control.
